Test results: US11739098B2 (BRISTOL-MYERS SQUIBB COMPANY, priority 2017, dated 2023)

What was measured:
Format in all cases: cell-based
human TLR7 = target: T1, human TLR7 (Homo sapiens, UniProt Q9NYK1); assay: TLR7 inhibition reporter assay (HEK-Blue cells, SEAP reporter, gardiquimod stimulation); conditions: HEK-Blue cells overexpressing human TLR7, SEAP reporter, gardiquimod 7.5 μM
T1 construct: host or cells: HEK-Blue cells (HEK293-derived reporter line)
T1 sequence (Q9NYK1 27-1049): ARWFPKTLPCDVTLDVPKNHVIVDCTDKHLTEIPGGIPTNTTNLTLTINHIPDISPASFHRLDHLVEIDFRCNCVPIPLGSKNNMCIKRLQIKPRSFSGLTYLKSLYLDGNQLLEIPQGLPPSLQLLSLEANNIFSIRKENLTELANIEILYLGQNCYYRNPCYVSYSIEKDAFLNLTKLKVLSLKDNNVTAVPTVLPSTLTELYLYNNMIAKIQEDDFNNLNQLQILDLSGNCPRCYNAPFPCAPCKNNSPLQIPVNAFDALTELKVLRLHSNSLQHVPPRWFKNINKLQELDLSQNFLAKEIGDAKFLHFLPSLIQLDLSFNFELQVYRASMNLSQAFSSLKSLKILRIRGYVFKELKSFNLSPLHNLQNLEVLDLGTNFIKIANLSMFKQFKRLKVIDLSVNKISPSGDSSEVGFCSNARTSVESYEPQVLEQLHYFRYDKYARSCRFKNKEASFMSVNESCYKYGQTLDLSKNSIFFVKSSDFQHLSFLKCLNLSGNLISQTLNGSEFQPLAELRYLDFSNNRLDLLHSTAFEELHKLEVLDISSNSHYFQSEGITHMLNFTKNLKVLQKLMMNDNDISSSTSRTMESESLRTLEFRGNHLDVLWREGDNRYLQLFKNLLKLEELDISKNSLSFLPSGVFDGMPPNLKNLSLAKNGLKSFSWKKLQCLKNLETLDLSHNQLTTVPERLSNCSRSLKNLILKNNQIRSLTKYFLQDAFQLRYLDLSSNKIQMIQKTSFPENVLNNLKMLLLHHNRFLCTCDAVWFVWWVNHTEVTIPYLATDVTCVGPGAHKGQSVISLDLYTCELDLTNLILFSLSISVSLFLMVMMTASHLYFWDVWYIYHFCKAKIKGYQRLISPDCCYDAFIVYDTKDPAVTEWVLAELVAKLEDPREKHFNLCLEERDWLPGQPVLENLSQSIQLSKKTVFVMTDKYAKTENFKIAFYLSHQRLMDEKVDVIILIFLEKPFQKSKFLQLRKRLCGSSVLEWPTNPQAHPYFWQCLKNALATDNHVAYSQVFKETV
Procedure, shortened: (§1)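 Agonists (final): TLR7 gardiquimod 7.5 μM; TLR8 R848 15.9 μM; TLR9 ODN2006 5 nM. HEK-Blue reporter cells, 30 min RT compound pre-incubation, 0.05 nM–50 μM dose range, 22 h at 37 °C, colorimetric SEAP detection medium. % inhibition relative to agonist+DMSO and known-inhibitor wells.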

human TLR9 = target: T2, human TLR9 (Homo sapiens, UniProt Q9NR96); assay: TLR9 inhibition reporter assay (HEK-Blue cells, SEAP reporter, ODN2006 stimulation); conditions: HEK-Blue cells overexpressing human TLR9, SEAP reporter, ODN2006 5 nM
T2 construct: host or cells: HEK-Blue cells (HEK293-derived reporter line)
T2 sequence (Q9NR96 26-1032): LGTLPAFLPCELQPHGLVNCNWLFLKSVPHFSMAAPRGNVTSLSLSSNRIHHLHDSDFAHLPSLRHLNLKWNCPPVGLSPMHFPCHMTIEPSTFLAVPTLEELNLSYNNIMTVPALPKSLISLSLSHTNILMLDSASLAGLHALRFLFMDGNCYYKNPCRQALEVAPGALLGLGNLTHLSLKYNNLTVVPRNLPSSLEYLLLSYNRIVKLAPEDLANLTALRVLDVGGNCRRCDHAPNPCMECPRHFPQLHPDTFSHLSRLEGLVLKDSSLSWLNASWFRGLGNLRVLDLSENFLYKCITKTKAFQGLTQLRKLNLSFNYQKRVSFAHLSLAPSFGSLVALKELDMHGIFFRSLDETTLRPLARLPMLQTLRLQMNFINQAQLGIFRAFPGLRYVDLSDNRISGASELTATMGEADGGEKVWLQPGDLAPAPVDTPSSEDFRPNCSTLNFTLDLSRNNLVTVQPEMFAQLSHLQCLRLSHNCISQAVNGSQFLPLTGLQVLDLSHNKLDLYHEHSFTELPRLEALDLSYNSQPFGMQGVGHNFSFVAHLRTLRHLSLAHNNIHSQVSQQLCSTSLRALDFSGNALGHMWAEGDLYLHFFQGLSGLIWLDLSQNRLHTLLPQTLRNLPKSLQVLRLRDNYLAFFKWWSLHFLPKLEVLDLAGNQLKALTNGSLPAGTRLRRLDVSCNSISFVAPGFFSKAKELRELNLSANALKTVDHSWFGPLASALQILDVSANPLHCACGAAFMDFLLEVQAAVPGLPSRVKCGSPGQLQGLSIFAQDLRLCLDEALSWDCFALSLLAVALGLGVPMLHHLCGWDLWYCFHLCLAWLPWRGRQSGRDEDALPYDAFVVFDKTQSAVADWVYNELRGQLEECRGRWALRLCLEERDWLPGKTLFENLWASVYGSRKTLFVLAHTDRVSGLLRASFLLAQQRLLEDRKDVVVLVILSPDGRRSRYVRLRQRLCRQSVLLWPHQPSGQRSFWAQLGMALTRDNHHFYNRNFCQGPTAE
Procedure, shortened: as §1

human TLR8 = target: T3, human TLR8 (Homo sapiens, UniProt Q9NR97); assay: TLR8 inhibition reporter assay (HEK-Blue cells, SEAP reporter, R848 stimulation); conditions: HEK-Blue cells overexpressing human TLR8, SEAP reporter, R848 15.9 μM
T3 construct: host or cells: HEK-Blue cells (HEK293-derived reporter line)
T3 sequence (Q9NR97 27-1041): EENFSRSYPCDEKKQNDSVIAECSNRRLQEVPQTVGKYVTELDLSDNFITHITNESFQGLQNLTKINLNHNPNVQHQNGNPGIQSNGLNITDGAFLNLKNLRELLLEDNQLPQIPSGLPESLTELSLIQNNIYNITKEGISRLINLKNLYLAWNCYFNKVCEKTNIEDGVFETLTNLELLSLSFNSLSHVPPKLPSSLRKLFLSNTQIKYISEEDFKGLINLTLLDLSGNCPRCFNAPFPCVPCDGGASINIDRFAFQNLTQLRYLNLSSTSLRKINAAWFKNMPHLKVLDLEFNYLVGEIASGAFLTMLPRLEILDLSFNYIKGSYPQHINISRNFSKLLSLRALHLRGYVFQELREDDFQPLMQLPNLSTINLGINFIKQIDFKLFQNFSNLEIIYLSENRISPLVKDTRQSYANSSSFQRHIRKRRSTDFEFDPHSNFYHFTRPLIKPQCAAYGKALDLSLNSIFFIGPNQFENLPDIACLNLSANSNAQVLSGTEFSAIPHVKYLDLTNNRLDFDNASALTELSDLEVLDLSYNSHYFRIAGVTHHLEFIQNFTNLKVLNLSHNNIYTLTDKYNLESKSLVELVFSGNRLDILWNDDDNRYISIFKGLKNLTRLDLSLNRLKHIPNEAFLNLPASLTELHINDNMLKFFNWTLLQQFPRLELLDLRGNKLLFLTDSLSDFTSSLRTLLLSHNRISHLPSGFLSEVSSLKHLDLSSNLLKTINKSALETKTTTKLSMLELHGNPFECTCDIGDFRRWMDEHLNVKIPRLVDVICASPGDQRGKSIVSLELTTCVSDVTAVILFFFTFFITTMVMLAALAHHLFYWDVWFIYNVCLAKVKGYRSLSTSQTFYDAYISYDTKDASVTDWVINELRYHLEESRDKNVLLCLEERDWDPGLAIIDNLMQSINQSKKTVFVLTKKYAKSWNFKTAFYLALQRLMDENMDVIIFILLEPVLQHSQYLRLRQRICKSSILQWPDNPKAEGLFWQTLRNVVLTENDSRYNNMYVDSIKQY
Procedure, shortened: as §1

| SMILES | IC50 (human TLR7) | IC50 (human TLR9) | IC50 (human TLR8) |
| --- | --- | --- | --- |
| Cc1cc2cc(-c3[nH]c4ccc(C5CCNCC5)cc4c3C(C)C)ccn2n1 [Example 145, 5-(3-isopropyl-5-(piperidin-4-yl)-1H-indol-2-yl)-2-methylpyrazolo[1,5-a]pyridine] | < 100 nM | 1000 to 50000 nM | 1000 to 50000 nM |
| CC(C)c1c(-c2ccnc3[nH]ncc23)[nH]c2ccc(C3CCN(Cc4cccnc4)CC3)cc12 [Example 907, 4-(3-isopropyl-5-(1-(pyridin-3-ylmethyl)piperidin-4-yl)-1H-indol-2-yl)-1H-pyrazolo[3,4-b]pyridine] | < 100 nM | 1000 to 50000 nM | < 100 nM |
| CNCC(=O)N1CCC(c2ccc3[nH]c(-c4cnc5ncnn5c4)c(C(C)C)c3c2)CC1 [Example 555, 1-(4-(2-([1,2,4]triazolo [1,5-a]pyrimidin-6-yl)-3-isopropyl-1H-indol-5-yl)piperidin-1-yl)-2-(methylamino)ethan-1-one] | < 100 nM | 1000 to 50000 nM | 100 to 1000 nM |
| Cc1c(-c2ncnc3[nH]ncc23)[nH]c2ccc(C3CCN(C4CCN(C(C)C)CC4)CC3)cc12 [Example 816, 4-(5-(1′-isopropyl-[1,4′-bipiperidin]-4-yl)-3-methyl-1H-indol-2-yl)-1H-pyrazolo[3,4-d]pyrimidine] | 100 to 1000 nM | < 100 nM | < 100 nM |
| CNC(=O)CN1CCC(c2ccc3[nH]c(-c4cn(C)c5ncccc45)c(C(C)C)c3c2)CC1 [Example 293, 2-(4-(3-isopropyl-2-(1-methyl-1H-pyrrolo[2,3-b]pyridin-3-yl)-1H-indol-5-yl)piperidin-1-yl)-N-methylacetamide] | < 100 nM | 1000 to 50000 nM | < 100 nM |
| CC(C)c1c(-c2cnc3ncccn23)[nH]c2ccc(C3CCN(CC(=O)N(C)C)CC3)cc12 [Example 290, 2-(4-(2-(imidazo[1,2-a]pyrimidin-3-yl)-3-isopropyl-1H-indol-5-yl)piperidin-1-yl)-N,N-dimethylacetamide] | 100 to 1000 nM | 1000 to 50000 nM | < 100 nM |
| Cc1nc2cc(-c3[nH]c4ccc(C5CCN(C6COC6)CC5)cc4c3C(C)C)ccn2n1 [Example 728, 7-(3-isopropyl-5-(1-(oxetan-3-yl)piperidin-4-yl)-1H-indol-2-yl)-2-methyl-[1,2,4]triazolo[1,5-a]pyridine] | < 100 nM | 1000 to 50000 nM | 1000 to 50000 nM |
| COc1cc(-c2[nH]c3ccc(C4CCN(C(=O)CN(C)C)CC4)cc3c2C(C)C)cc2nc(C)cn12 [Example 541, 2-(dimethylamino)-1-(4-(3-isopropyl-2-(5-methoxy-2-methylimidazo[1,2-a]pyridin-7-yl)-1H-indol-5-yl)piperidin-1-yl)ethan-1-one] | 100 to 1000 nM | 100 to 1000 nM | 100 to 1000 nM |
| Cc1cc(-c2[nH]c3ccc(C4CCN(C(=O)CN(C)C)CC4)cc3c2C(C)C)cc2[nH]c(=O)oc12 [Example 490, 5-(5-(1-(dimethylglycyl)piperidin-4-yl)-3-isopropyl-1H-indol-2-yl)-7-methylbenzo[d]oxazol-2(3H)-one] | 100 to 1000 nM | 1000 to 50000 nM | 100 to 1000 nM |
| CCN(C)C(=O)c1cn2cc(-c3[nH]c4ccc(C5CCNCC5)cc4c3C(C)C)cc(C)c2n1 [Example 266, N-ethyl-6-(3-isopropyl-5-(piperidin-4-yl)-1H-indol-2-yl)-N,8-dimethylimidazo[1,2-a]pyridine-2-carboxamide] | < 100 nM | 1000 to 50000 nM | < 100 nM |
| CC(C)c1c(-c2cc(C(C)(C)O)c3nccn3c2)[nH]c2ccc(C3CCNCC3)cc12 [Example 134, 2-(6-(3-isopropyl-5-(piperidin-4-yl)-1H-indol-2-yl)imidazo[1,2-a]pyridin-8-yl)propan-2-ol] | < 100 nM | 100 to 1000 nM | 100 to 1000 nM |
| CNC(=O)CN1CCC(c2ccc3[nH]c(-c4cc(C)n5cncc5c4)c(C(C)C)c3c2)CC1 [Example 440, 2-(4-(3-isopropyl-2-(5-methylimidazo[1,5-a]pyridin-7-yl)-1H-indol-5-yl)piperidin-1-yl)-N-methylacetamide] | < 100 nM | 100 to 1000 nM | < 100 nM |
| Cc1cc2cc(-c3[nH]c4ccc(C5CCN(C6COC6)CC5)cc4c3C(C)C)ccn2n1 [Example 726, 5-(3-isopropyl-5-(1-(oxetan-3-yl)piperidin-4-yl)-1H-indol-2-yl)-2-methylpyrazolo[1,5-a]pyridine] | 100 to 1000 nM | > 50000 nM | > 3130 nM |
| Cc1nc2c(-c3[nH]c4ccc(C5CCN(CC(=O)N(C)C)CC5)cc4c3C(C)C)ccc(C)n2n1 [Example 384, 2-(4-(2-(2,5-dimethyl-[1,2,4]triazolo[1,5-a]pyridin-8-yl)-3-isopropyl-1H-indol-5-yl)piperidin-1-yl)-N,N-dimethylacetamide] | 1000 to 50000 nM | 1000 to 50000 nM | 100 to 1000 nM |
